According to patent US8101580B2, “Therapeutic agent for irritable bowel syndrome” (Astellas Pharma Inc., priority 2005, dated 2012):

Tests used:
[1] = tested on: patients; details: IBS patients; cited from earlier work
[2] = molecular target: T1, BB2 receptor (Homo sapiens, UniProt P30550); assay: BB2 receptor binding test (125I [Tyr4] bombesin, PC-3 cell membrane sample); details: membrane sample of human prostate cancer-derived PC-3 cell; 125I [Tyr4] bombesin 0.075 nM; room temperature, 2 hours; read-out: 50% binding inhibition concentration
T1 construct: endogenous in cells; host or cells: PC-3 human prostate cancer cells (membrane preparation)
Description: A BB2 receptor binding test was carried out using a membrane sample prepared from a human prostate cancer-derived PC-3 cell. The PC-3 cell was cultured using RPMI-1640 medium containing 5% fetal bovine serum, and then a membrane sample was prepared by the following methods. The cells loosened by a trypsin treatment were mixed with 50 mM Tris-HCl buffer (pH 7.4, containing 0.2 mg/ml trypsin inhibitor and 0.2 mg/ml benzamidine) and homogenized by Polytron. The cell suspension was centrifuged at 1,500 rpm for 10 minutes, and the thus obtained supernatant was subjected to 1 hour of ultracentrifugation at 37,000 rpm. The precipitate was suspended in the aforementioned buffer to a concentration of 0.4 mg protein/ml and stored at −80° C.
The BB2 receptor binding test was carried out by the following method, and the receptor antagonistic activity of a compound to be tested was calculated. A 50 μl portion of the membrane sample, 50 μl of an assay buffer (20 mM HEPES-HBSS containing 0.1% bovine serum albumin and 0.1 mg/ml bacitracin, pH 7.4) ^125I [Tyr^4] bombesin (0.075 nM) and 2 μl of each compound to be tested dissolved in dimethyl sulfoxide were added to a 96 well assay plate and incubated at room temperature for 2 hours. Non-specific binding was measured using 1 μM of bombesin. After completion of the incubation, the reaction liquid was filtered through a Whatman GF/B filter which had been soaked in 0.5% polyethyleneimine. The radioactivity on the filter was measured using a microplate scintillation counter (Top Count, Perkin-Elmer).

[3] = tested on: fed male ddY mice; assay: Restraint stress-induced defication model; format: in vivo; details: for 50% inhibition dose for restraint stress-induced defication: number of feces excreted during 1 hour of restraint
Description: RC-3095 was used by dissolving in physiological saline, and compound 1, compound 3 and compound 5 in physiological saline containing 5% ethanol+5% Cremophor, and compound 2 and compound 4 in water for injection containing 20% propylene glycol+20% Tween 80. Just after intraperitoneal administration of a compound to be tested to each of fed male ddY mice, the animal was put into a restraint stress cage (KN-469, Natsume Seisakusho). The number of feces excreted during a period of from the restriction commencement to 1 hour thereafter was measured. Normal group was put into a separate cage, and number of feces excreted during 1 hour was measured in the same manner.

[4] = tested on: fed male Wistar rats; assay: Abdominal pain model by large intestinal distension using abdominal muscle contraction reaction as the index; format: in vivo
Description: Fed male Wistar rats were used. Under pentobarbital anesthesia, an electrode for electromyogram use (trade name: M-1.5I, Star Medical) was sewed on the outer abdominal oblique muscle. The electrode cord was fished out from the body of around the back of the head through the skin and protected with a protective jacket prepared by processing Velcro. The test was carried out when 5 days or more passed after the surgical operation.
On the day of the test, a latex balloon of 5 to 6 cm in length was inserted from the rat anus under a light ether anesthesia and adjusted such that the balloon end is positioned at 2 cm from the anus. The catheter continuing from the balloon was fixed to the tail base with a tape and connected to a pressure transducer and a plastic bottle filled with water via a three-way cock. The plastic bottle was connected to a motor-aided device such that its height can be increased at a constant rate, and the colon-rectum was distended by increasing height of the plastic bottle. The balloon internal pressure signal was amplified using an amplifier for strain pressure use. After recovering from the ether anesthesia in a cage (23.5×19×19 cm), the colon-rectum distension was carried out. […] As a result, the abdominal muscle contracts and the electromyogram activities increase suddenly and sharply. The pressure at this point of time was regarded as the abdominal pain reflection threshold value. The electromyogram activities were amplified using an amplifier for bioelectric use (trade name: AB-621G, Nihon Kohden Corp.), and recorded by a data recording interface (trade name: 1401 plus, Cambridge Electronic Design, Cambridge, England). The colon-rectum distension was repeatedly carried out at intervals of 4 minutes until completion of the test. The compound was administered 2 minutes after completion of the measurement of the pre-administration value, and the colon-rectum distension was repeated until 60 minutes after the administration. […]

[5] = tested on: fed male Sprague-Dawley rats; assay: Conditioned-fear stress (CFS)-induced defication model; format: in vivo; details: wet weight of feces for 30 minutes
Description: Fed male Sprague-Dawley rats were used. The rats were put into an electric shock device having a grid set in the floor (17×17×39 cm, trade name: CB 2000 type, O'Hara), and conditioning was carried out after 3 seconds of a warning sound, by applying an electric current of 2.5 mA for 5 seconds per once per minute, a total of 15 times, and carrying out light irradiation by three 40 W electric bulbs at the time of the electric shock. The normal group was put into the measuring device by the same protocol, but the electric shock was not applied. After about 24 hours, the rats were again put into the electric shock device just after intraperitoneal administration of tested compound, and CFS loading was carried out by applying 3 seconds of warning sound and 5 seconds light irradiation for 30 minutes. Wet weights of excreted feces were measured for 30 minutes starting from the commencement of CFS loading. In this connection, the feces just after putting of the rats into the measuring device were excluded from measured values.

T1 sequence (P30550 whole entry): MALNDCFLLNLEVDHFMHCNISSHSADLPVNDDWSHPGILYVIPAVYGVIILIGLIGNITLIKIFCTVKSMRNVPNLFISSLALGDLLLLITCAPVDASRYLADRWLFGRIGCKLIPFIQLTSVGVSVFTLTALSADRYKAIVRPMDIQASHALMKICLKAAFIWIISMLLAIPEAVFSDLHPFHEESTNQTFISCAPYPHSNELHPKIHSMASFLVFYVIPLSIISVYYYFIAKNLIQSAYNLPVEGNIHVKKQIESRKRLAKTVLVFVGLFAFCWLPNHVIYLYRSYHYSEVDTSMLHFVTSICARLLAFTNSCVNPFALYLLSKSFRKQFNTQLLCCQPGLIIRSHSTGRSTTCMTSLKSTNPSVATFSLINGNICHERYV

Row | SMILES | IC50 [2] [µM] | 50% inhibition dose for restraint stress-induced defication ([3]; intraperitoneal) [mg/kg] | other results
1 | Cc1[nH]cnc1CN1CCc2c(c3ccccc3n2C)C1=O [alosetron] | – | – | improving rate for abdominal symptoms and diarrhea [1]: 40 to 60%; serious side effect [1]: ischemic colitis (including mortal cases)
2 | COc1ccc(N(CC(=O)Nc2ccc(Cl)cc2C)S(=O)(=O)c2ccccc2)cc1OC [compound 4] | 0.398 | 13.5 | –
3 | COc1cc(OC)cc(C(=O)Nc2sc3c(c2-c2nc4ccccc4s2)CCN(C(C)C)C3)c1.Cl [compound 5, N-[3-(1,3-benzothiazol-2-yl)-6-isopropyl-4,5,6,7-tetrahydrothieno[2,3-c]pyridin-2-yl]-3,5-dimethoxybenzamide hydrochloride] | 0.383 | 15.6 | –
4 | O=C(/C=C/c1ccc(-c2ccc([N+](=O)[O-])cc2)o1)c1ccccc1 [compound 2, (2E)-3-[5-(4-nitrophenyl)-2-furyl]-1-phenyl-2-propen-1-one] | 1.33 | 34.3 | –
5 | O=C(Nc1ccc(S(=O)(=O)N2CCCCC2c2cccnc2)cc1)c1cc([N+](=O)[O-])ccc1Cl (centres unmarked) [compound 3, 2-chloro-5-nitro-N-(4-{[2-(pyridin-3-yl)piperidin-1-yl]sulfonyl}phenyl)benzamide] | 0.342 | 19.0 | –
6 | c1ccc(-c2sc(-c3ccccn3)nc2-c2cccc3ccccc23)cc1 [compound 1, 2-[4-(1-naphthyl)-5-phenyl-1,3-thiazol-2-yl]pyridine] | 0.504 | – | inhibitory effect on the defication ([3]; 10 mg/kg intraperitoneal, number of feces during 1 hour of restraint): about 83%
7 | CC(C)CC(CN[C@@H](CC(C)C)C(N)=O)NC(=O)[C@H](Cc1cnc[nH]1)NC(=O)CNC(=O)[C@@H](NC(=O)C(C)NC(=O)[C@H](Cc1c[nH]c2ccccc12)NC(=O)[C@H](CCC(N)=O)NC(=O)[C@H]1Cc2c([nH]c3ccccc23)CN1)C(C)C (some centres unmarked) [RC-3095] | 0.02 | 5.2 | action on abdominal pain threshold value at 3 mg/kg (in words) ([4]; 3 mg/kg, AUC of threshold values until 60 minutes): significant increasing action; action on abdominal pain threshold value at 10 mg/kg (in words) ([4]; 10 mg/kg, AUC of threshold values until 60 minutes): significant increasing action; action on abdominal pain threshold value (in words) ([4]; AUC of threshold values until 60 minutes after administration, FIG. 9): dose-dependently increase abdominal pain threshold value; effect on CFS-induced defication at 10 mg/kg (in words) ([5]; 10 mg/kg intraperitoneal): significant inhibitory action; effect on CFS-induced defication (in words) ([5]; intraperitoneal, FIG. 8): dose-dependent inhibitory effect on the defication; effect on restraint stress-induced defication (in words) ([3]; intraperitoneal, FIG. 2): dose-dependent inhibitory effect on the defication
